pEC50: −log10 of the molar value. In brackets after ≈: the same amount, converted by molar mass.
Legend:
[1] = test system: Pseudomonas aeruginosa; assay: Antibacterial activity against Pseudomonas aeruginosa MTCC 2453 incubated for 24 hrs by serial two-fold dilution method; assay type: functional; details: MTCC 2453, 24 h
[2] = test system: Escherichia coli; assay: Antibacterial activity against Escherichia coli MTCC 40 incubated for 24 hrs by serial two-fold dilution method; assay type: functional; details: MTCC 40, 24 h
[3] = test system: Staphylococcus aureus; assay: Antibacterial activity against Staphylococcus aureus MSSA 22 incubated for 24 hrs by filter paper disc method; assay type: functional
[4] = test system: Escherichia coli; assay: Antibacterial activity against Escherichia coli K-12 incubated for 24 hrs by filter paper disc method; assay type: functional
[5] = test system: Bacillus subtilis; assay: Antibacterial activity against Bacillus subtilis MTCC 121 incubated for 24 hrs by filter paper disc method; assay type: functional
[6] = test system: Pseudomonas aeruginosa; assay: Antibacterial activity against Pseudomonas aeruginosa incubated for 24 hrs by filter paper disc method; assay type: functional
[7] = test system: Salmonella typhimurium; assay: Antibacterial activity against Salmonella typhimurium MTCC98 at 100 ug/mL incubated for 24 hrs by filter paper disc method; assay type: functional, Salmonella enterica subsp. enterica serovar Typhimurium; details: Salmonella enterica, MTCC98, 24 h; read-out: DIZ
[8] = test system: Staphylococcus aureus; assay: Antibacterial activity against Staphylococcus aureus MSSA 22 at 100 ug/mL incubated for 24 hrs by filter paper disc method; assay type: functional; details: MSSA 22, 24 h, read-out: DIZ
[9] = test system: Escherichia coli; assay: Antibacterial activity against Escherichia coli K-12 at 100 ug/mL incubated for 24 hrs by filter paper disc method; assay type: functional; details: K-12, 24 h, read-out: DIZ
[10] = test system: Candida albicans; assay: Antifungal activity against Candida albicans IOA-109 at 100 ug/mL incubated for 18 to 48 hrs by agar disc diffusion method; assay type: functional; details: read-out: DIZ
[11] = test system: Bacillus subtilis; assay: Antibacterial activity against Bacillus subtilis ATCC 6051 at 100 ug/mL incubated for 24 hrs by filter paper disc method; assay type: functional; details: ATCC 6051, 24 h, read-out: DIZ
[12] = test system: A549; assay: Cytotoxicity in human A549 cells by SRB assay; assay type: functional; details: read-out: TC50 (the source's name)
[13] = test system: Candida albicans; assay: Antifungal activity against Candida albicans IOA-109 incubated for 18 to 48 hrs; assay type: functional
[14] = test system: Klebsiella pneumoniae; assay: Antibacterial activity against Klebsiella pneumoniae incubated for 24 hrs by filter paper disc method; assay type: functional
[15] = test system: Candida albicans; assay: Antifungal activity against Candida albicans IOA-109 at 50 ug/disc incubated for 5 to 6 days by disc diffusion method; assay type: functional; details: read-out: DIZ
[16] = test system: Plasmodium falciparum; assay: Antimalarial activity against Plasmodium falciparum infected in erythrocytes assessed as inhibition of increase in parasite density after 72 hrs; assay type: functional, organism-based

MIC [1]	MIC [2]	Compound	zone of inhibition at 100 µg/mL [7]	zone of inhibition at 100 µg/mL [8]	zone of inhibition at 100 µg/mL [9]	zone of inhibition at 100 µg/mL [10]	zone of inhibition at 100 µg/mL [11]	further results
0.35 to 0.7 µg/mL (≈ 0.828 to 1.66 µM)	0.35 to 0.7 µg/mL (≈ 0.828 to 1.66 µM)	CCCCCCCCCCCCCC(=O)NN1C(=O)CSC1c1ccc(F)cc1 (stereo unspecified)						
		CCCCC/C=C\CCC(O)CCCCCCCC(=O)N1N=C(C)CC1=O (stereo unspecified)						diameter of the inhibition zone (DIZ) [3]: 10 - 18 mm; diameter of the inhibition zone (DIZ) [4]: 10 - 18 mm; diameter of the inhibition zone (DIZ) [5]: 10 - 18 mm; diameter of the inhibition zone (DIZ) [6]: 10 - 18 mm
		CCCCCCCCCCCCCCCCCc1nc(-c2cccc(O)c2)n[nH]1	13.1 to 22.2 mm	13.1 to 22.2 mm	13.1 to 22.2 mm	17.2 to 19 mm	13.1 to 22.2 mm	
0.35 to 0.7 µg/mL (≈ 0.749 to 1.5 µM)	0.35 to 0.7 µg/mL (≈ 0.749 to 1.5 µM)	CCCCCCCCCCCCCCCC(=O)NN1C(=O)CSC1c1ccc(Cl)cc1 (stereo unspecified)						
		CCCCCCCCCCCCCCCCCc1nnc(S)n1N						CC50 [12]: 0.282 µM
		CCCCCCCCCCCCCCCCCc1nc(-c2ccc(O)c(O)c2)n[nH]1	13.1 to 22.2 mm	13.1 to 22.2 mm	13.1 to 22.2 mm	17.2 to 19 mm	13.1 to 22.2 mm	
0.35 to 0.7 µg/mL (≈ 0.865 to 1.73 µM)	0.35 to 0.7 µg/mL (≈ 0.865 to 1.73 µM)	CCCCCCCCCCCCCC(=O)NN1C(=O)CSC1c1ccccc1 (stereo unspecified)						
0.35 to 0.7 µg/mL (≈ 0.777 to 1.55 µM)	0.35 to 0.7 µg/mL (≈ 0.777 to 1.55 µM)	CCCCCCCCCCCCCCCC(=O)NN1C(=O)CSC1c1ccc(F)cc1 (stereo unspecified)						
0.35 to 0.7 µg/mL (≈ 0.809 to 1.62 µM)	0.35 to 0.7 µg/mL (≈ 0.809 to 1.62 µM)	CCCCCCCCCCCCCCCC(=O)NN1C(=O)CSC1c1ccccc1 (stereo unspecified)						
		CCCCCCC/C=C\CC(O)CCCCCCC(=O)n1[nH]c(=O)c2ccccc2c1=O (stereo unspecified)						diameter of the inhibition zone (DIZ) [3]: 10 - 18 mm; diameter of the inhibition zone (DIZ) [4]: 15 - 18 mm; diameter of the inhibition zone (DIZ) [5]: 10 - 18 mm; diameter of the inhibition zone (DIZ) [6]: 10 - 18 mm
		CCCCC/C=C\CCC(O)CCCCCCCC(=O)Nn1c(C)ccc1C (stereo unspecified)						diameter of the inhibition zone (DIZ) [3]: 15 - 19 mm; diameter of the inhibition zone (DIZ) [4]: 15 - 19 mm; diameter of the inhibition zone (DIZ) [5]: 15 - 19 mm; diameter of the inhibition zone (DIZ) [13]: 17 - 20 mm; diameter of the inhibition zone (DIZ) [14]: 15 - 19 mm
		CCCCCCC(O)C/C=C\CCCCCCCc1nc(-c2ccccc2)n[nH]1 (stereo unspecified)	13.1 to 22.2 mm	13.1 to 22.2 mm	13.1 to 22.2 mm	17.2 to 19 mm	13.1 to 22.2 mm	
		CC/C=C\C/C=C\C/C=C\CCCCCCCc1nnc(S)n1N						CC50 [12]: 0.264 µM
		CCCCC/C=C\CCC(O)CCCCCCCc1nc(-c2ccc(O)c(O)c2)n[nH]1 (stereo unspecified)	13.1 to 22.2 mm	13.1 to 22.2 mm	13.1 to 22.2 mm	17.2 to 19 mm	13.1 to 22.2 mm	
		C=CCCCCCCCCc1nc(-c2ccccc2)n[nH]1	13.1 to 22.2 mm	13.1 to 22.2 mm	13.1 to 22.2 mm	17.2 to 19 mm	13.1 to 22.2 mm	
		CCCCCCCC(O)CC/C=C\CCCCCC(=O)n1nnc2ccccc21 (stereo unspecified)						zone of inhibition at 50 µg/disc [15]: 16 to 20 mm
		CCCCCCC(O)C/C=C\CCCCCCCc1nc(-c2cccc(O)c2)n[nH]1 (stereo unspecified)	13.1 to 22.2 mm	13.1 to 22.2 mm	13.1 to 22.2 mm	17.2 to 19 mm	13.1 to 22.2 mm	
0.35 to 0.7 µg/mL (≈ 0.805 to 1.61 µM)	0.35 to 0.7 µg/mL (≈ 0.805 to 1.61 µM)	CCCCCCCCCCCCCC(=O)NN1C(=O)CSC1c1ccc(OC)cc1 (stereo unspecified)						
		C=C[C@H]1CN2CC[C@H]1C[C@H]2[C@H](O/C=C/C=C/CCCCCCCCCCCCCC)c1ccnc2ccc(OC)cc12						pEC50 [16]: 4.70 to 5.15
		CCCCCCCCCCCCCCCCCc1nnc(S)o1						CC50 [12]: 0.143 µM
0.35 to 0.7 µg/mL (≈ 0.756 to 1.51 µM)	0.35 to 0.7 µg/mL (≈ 0.756 to 1.51 µM)	CCCCCCCCCCCCCCCC(=O)NN1C(=O)CSC1c1ccc(OC)cc1 (stereo unspecified)						
0.35 to 0.7 µg/mL (≈ 0.724 to 1.45 µM)	0.35 to 0.7 µg/mL (≈ 0.724 to 1.45 µM)	CCCCCCCCCCCCCC(=O)NN1C(=O)CSC1c1ccc(Br)cc1 (stereo unspecified)						
		C=C[C@H]1CN2CC[C@H]1C[C@H]2[C@H](O/C=C/C=C/C=C/C=C/C=C/CCCCCCCCCC)c1ccnc2ccc(OC)cc12						pEC50 [16]: 4.70 to 5.15
		C=CCCCCCCCCc1nc(-c2cccc(O)c2)n[nH]1	13.1 to 22.2 mm	13.1 to 22.2 mm	13.1 to 22.2 mm	17.2 to 19 mm	13.1 to 22.2 mm	
		C=C[C@H]1CN2CC[C@H]1C[C@H]2[C@H](OCCCCCCCCCCCC)c1ccnc2ccc(OC)cc12						pEC50 [16]: 4.70 to 5.15
		C=CCCCCCCCCc1nc(-c2ccc(O)c(O)c2)n[nH]1	13.1 to 22.2 mm	13.1 to 22.2 mm	13.1 to 22.2 mm	17.2 to 19 mm	13.1 to 22.2 mm	

From ChEMBL document CHEMBL4130493, “An insight into the biological activities of heterocyclic-fatty acid hybrid molecules” (Eur J Med Chem, 2017)
